# Test results from US20250283052A1, “THERAPEUTIC NK CELL POPULATIONS” (Gamida Cell Ltd., priority 2021, published 2025).
# Tests used:
# CD62L = CD62L staining 2 hours post-thaw (FACS); format: cell-based; conditions: culturing in 7 mM NAM; 2 hours post-thaw (FIG. 2)
# Experimental: The cells were thawed, and 2 hours post-thaw were sampled for staining against CD62L and analyzed by FACS. Assays for adhesion and migration molecules such as CD62L, CXCR-4, CD49e and the like, important for homing/engraftment and retention of cells in transplantation, are well known in the art. CD62L expression in a cell can be assayed, for example, by flow cytometry, immunodetection, quantitative cDNA amplification, hybridization and the like. In one embodiment, CD62L expression is detected in different populations of NK cells by exposure of the cells to a fluorescent-tagged specific anti-human CD62L monoclonal antibody [e.g., CD62L PE, Cat. No. 304806 from BioLegend (San Diego, CA, USA)], and sorting of the cells by fluorescent activated cell sorting (FACS). After 2 weeks in culture according to the methods of the invention, a modified procedure using inactivated autologous CD3+ cells as feeder, supplemented with OKT3 and NAM, led to an improved fold expansion, which increased the total number of viable cells obtained at harvest. The functionality of the cells in killing and ADCC was assessed by combination of NK cells with target cells BL2 (Burkitt lymphoma cell line)—at different ratios. […]
# CD200R = CD200R immunophenotyping of expanded NK cells (FACS); format: cell-based; conditions: 2 weeks culture without NAM or with 2.5, 5 or 7 mM NAM (FIG. 3)
# Experimental: Cells were cultured for 2 weeks without NAM and with 2.5 mM, 5 mM NAM or 7 mM NAM. Samples for staining against CD200R were analyzed by FACS.
# The immune checkpoint receptors, CD200R and Programmed Death receptor-1 (PD-1), are exploited by tumor cells which overexpress their ligands to suppress lymphocytes anti-tumor activity. The effect of expansion with nicotinamide (NAM) on expression of immune checkpoint receptors in NK cells was assessed.
smiles,measurement,setting,value
"NC(=O)c1cccnc1 [NAM, nicotinamide]",expression of CD62L,CD62L,increased expression of CD62L
same,expression of CD200R on expanded NK cells,CD200R,down regulated
